Results from PMC9948186 (ACS Omega, 2023).

Molecular target: T1, Microtubule affinity regulatory kinase 4 (MARK4) (Homo sapiens, UniProt Q96L34)
T1 sequence (Q96L34 1-752): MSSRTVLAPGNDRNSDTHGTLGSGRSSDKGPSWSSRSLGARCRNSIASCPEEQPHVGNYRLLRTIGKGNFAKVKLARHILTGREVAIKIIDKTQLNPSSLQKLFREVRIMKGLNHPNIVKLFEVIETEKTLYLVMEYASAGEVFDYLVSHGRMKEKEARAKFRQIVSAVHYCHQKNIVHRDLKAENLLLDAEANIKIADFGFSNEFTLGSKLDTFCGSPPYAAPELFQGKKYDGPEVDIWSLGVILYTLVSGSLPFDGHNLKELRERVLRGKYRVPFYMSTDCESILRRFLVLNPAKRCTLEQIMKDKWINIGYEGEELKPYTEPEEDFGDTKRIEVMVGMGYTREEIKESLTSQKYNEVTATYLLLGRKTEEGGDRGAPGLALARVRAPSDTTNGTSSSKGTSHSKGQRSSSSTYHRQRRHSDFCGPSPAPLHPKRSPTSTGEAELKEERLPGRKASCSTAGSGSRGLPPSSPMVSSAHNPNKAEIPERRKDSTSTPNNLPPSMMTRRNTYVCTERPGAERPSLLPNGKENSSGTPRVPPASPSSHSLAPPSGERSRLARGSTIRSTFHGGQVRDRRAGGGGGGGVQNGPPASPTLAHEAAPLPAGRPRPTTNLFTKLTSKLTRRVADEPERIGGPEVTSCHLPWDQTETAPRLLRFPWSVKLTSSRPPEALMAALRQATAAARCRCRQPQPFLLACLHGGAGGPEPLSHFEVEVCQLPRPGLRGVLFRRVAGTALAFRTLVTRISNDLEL
Assay: malachite green ATPase
Type: biochemical

IC50 [µM]	SMILES
7.63	CC#CCn1c(N2CCC[C@@H](N)C2)nc2c1c(=O)n(Cc1nc(C)c3ccccc3n1)c(=O)n2C [linagliptin]
7.1	OC[C@H]1O[C@@H](c2ccc(Cl)c(Cc3ccc(O[C@H]4CCOC4)cc3)c2)[C@H](O)[C@@H](O)[C@@H]1O [empagliflozin]
